Assay results from patent publication EP0200406A2, “Novel amino acid derivatives” (Kissei Pharmaceutical Co Ltd, priority 1985, dated 1986).

Key:
renin [1] = biological target: T1, renin (Homo sapiens, UniProt P00797); test: Renin inhibitory effect in a human high renin plasma; assay type: biochemical; set-up: from tissue; host or cells: human high renin plasma; details: pH 7, 60 minutes at 37°C, angiotensin I by radioimmunoassay, read-out: IC50 (molar concentration)
T1 sequence (P00797 67-406): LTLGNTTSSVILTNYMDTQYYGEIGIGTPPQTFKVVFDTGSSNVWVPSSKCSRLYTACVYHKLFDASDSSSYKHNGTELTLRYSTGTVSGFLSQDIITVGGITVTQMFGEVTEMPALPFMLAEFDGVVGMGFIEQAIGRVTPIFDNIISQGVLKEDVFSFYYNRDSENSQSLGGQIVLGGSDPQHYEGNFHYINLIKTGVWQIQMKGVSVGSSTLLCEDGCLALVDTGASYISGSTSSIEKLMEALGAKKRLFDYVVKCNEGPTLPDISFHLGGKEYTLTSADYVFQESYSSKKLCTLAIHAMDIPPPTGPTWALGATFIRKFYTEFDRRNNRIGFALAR
Method: A mixture of 350 µl of a 0.5 M phosphate buffer containing 14 mM EDTA 2Na and a 0.3% neomycin sulfate, which was adjusted to the pH of 7, 50 µl of a 20 mM an aqueous solution of L-phenylalanyl-L-alanyl-L-prolin as an angiotensin converting enzyme inhibitor and 100 µl of dimethyl sulfoxide solution containing an amino acid compound of the present invention was added to 500 µl of human high renin plasma, and 200 µl of the mixture was incubated at 4°C in an ice bath, and remaining mixture (800 µl) was incubated for 60 minutes at 37°C in a water bath. A 200 µl sample was withdrawn from the incubated mixture, chilled immediately in an ice bath, and the amount (A) of angiotensin I produced was determined by radioimmunoassay.
Also, the amount (B) of angiotensin I produced in the incubated mixture at 4°C in an ice bath was determined by radioimmunoassy.
As a control, the same procedure as above was carried out by using 100 µl of dimethyl sulfoxide alone in place of the 100µl of dimethyl sulfoxide solution containing an amino acid compound of the present invention.
The renin inhibitory effect in human plasa was calculated by taking the amount of angiotensin I - (A) from the amount of angiotensin I (B). The inhibotory effect was calculated by the following equation. [formula]

renin [2] = biological target: T1, renin; test: Human renin-sheep renin substrate reaction system in vitro; assay type: biochemical; details: purified human renin, semipurified sheep renin substrate, pH 7.4, 15 minutes at 37°C, angiotensin I by radioimmunoassay; read-out: IC50 molar concentration
Method: To a mixture containing 200 µl of a 125 mM pyrophosphate buffer (pH 7.4), 25 µl of a 20 mM aqueous solution of L-phenylalanyl-L-alanyl-L-prolin as an angiotensin cnverting enzyme inhibitor, 50 µ01 of semipurified sheep renin substrate (2000 ng angiotensin I/ml), 50 µl of dimethyl sulfoxide solution of an amino acid compound of the present invention and 150 µl of deionized water was added 25 µl of purified human renin (20-30 ng angiotensin I/ml/hr. The mixture was incubated for 15 minutes on a water bath at 37°C, and the reaction mixture was allowed to stand for 5 minutes on a water bath at 100°C to stop the reaction. After cooling, 200 µl of the solution were taken up and the amount of angiotensin I produced by the addition of renin was determined by radiommunoassay. The inhibitory effect was calculated by the following equation.
As a control, the same procedure as above was carried out by using 50 µl of dimethyl sulfoxide alone in place of the 50 µl of dimethyl sulfoxide solution containing an amino acid compound of the present invention.

common marmoset = test: Hypotensive effect in marmoset; assay type: in vivo; details: orally 30 mg/kg, conscious male marmosets in high renin state (furosemide), Control 103.5
Method: The experiment was carrried out by using common marmoset as described in K.G. Hofbauer et al., Clinical and Experimental hypertension, Vol. A5, Nos. 7 & 8 (1983), pages 1237-1247.
Furosemide was orally administered three times to common marmoset at 15 mg per kilogram per day every other day to create a high renin state. Blood pressure of consious marmoset was measured 2 days after the last administration of furosemide.
Three consious male marmosets marmosets weighing 305-345 g were fixed. Mean blood pressure at tail artery was recorded on pretismograph instrument. The amino acid compound, of the present invention isopropyl (2RS. 3S)-3-{N-[2-(1-naphthylmethyl)-3-(morpholinocarbonylpropionyl]-L-histidyl}amino-2-hydroxy-5-methylhexanoate and administered orally at 30 mg/kg by using a catheter. The results obtained are shown below.

Row | SMILES | IC50 (renin [1]) | IC50 (renin [2]) | also measured
1 | CNC(=O)C(O)[C@H](CC(C)C)NC(=O)[C@H](Cc1c[nH]cn1)NC(=O)C(CC(=O)N1CCCCC1)Cc1cccc2ccccc12 (mixture of isomers) [Example 7, (2RS, 3S)-3-{N-[2-(1-Naphthylmethyl)-3-(piperidinocarbonyl)propionyl]-L-histidyl}amino-2-hydroxy-5-methylhexanoylmethylamide] | 5200 nM | 690 nM | –
2 | COC(=O)C[C@H](O)[C@H](CC(C)C)NC(=O)[C@H](Cc1c[nH]cn1)NC(=O)C(CC(=O)N1CCOCC1)Cc1cccc2ccccc12 (stereo partly drawn) [Example 11, Methyl N-[2-(1-naphthylmethyl)-3-(morpholinocarbonyl)propionyl]-L-histidyistatinate] | – | 210 nM | –
3 | CC(C)CCNC(=O)C[C@H](O)[C@H](CC(C)C)NC(=O)[C@H](Cc1c[nH]cn1)NC(=O)C(CC(=O)N1CCOCC1)Cc1cccc2ccccc12 (stereo partly drawn) [Example 13, N-[2-(1-Naphthyfmethyl)-3-(morpholinocarbouyl)-propionyl]-L-histidyl-statylisoamylamide] | – | 36 nM | –
4 | CC(C)C[C@H](NC(=O)[C@H](Cc1c[nH]cn1)NC(=O)C(CC(=O)N1CCCCC1)Cc1cccc2ccccc12)C(O)C(=O)OC(C)C (stereo partly drawn) [Example 5, lsopropyl (2RS, 3S)-3-{N-[2-(1-Naphthytmethyl)-3-(piperidinocarbonyl)propionyl}-t-hisfidyl)amino-2-hydroxy-5-methylhexanoate] | 88 nM | 28 nM | –
5 | CCNC(=O)CC(Cc1cccc2ccccc12)C(=O)N[C@@H](Cc1c[nH]cn1)C(=O)N[C@@H](CC(C)C)C(O)C(=O)OC (mixture of isomers) [Example 10, Methyl (2RS, 3S)-3-{N-[2-(1-naphthylmethyl)-3-(ethylcarbamoyl)propionyl]-L-histidyl}amino-2-hydroxy-5-methylhexanoate] | – | 630 nM | –
6 | CC(C)C[C@H](NC(=O)[C@H](Cc1cnc[nH]1)NC(=O)C(CC(=O)N1CCOCC1)Cc1cccc2ccccc12)C(O)C(=O)OC(C)C (stereo partly drawn) [Example 1] | – | – | Mean blood pressure (common marmoset; 0.5 hours after administration): 88.7 mmHg; Mean blood pressure (common marmoset; 1 hour after administration): 85.6 mmHg; Mean blood pressure (common marmoset; 2 hours after administration): 87.2 mmHg; Mean blood pressure (common marmoset; 3 hours after administration): 89.3 mmHg; Mean blood pressure (common marmoset; 5 hours after administration): 92.4 mmHg; Mean blood pressure (common marmoset; 7 hours after administration): 92.3 mmHg; Mean blood pressure (common marmoset; 9 hours after administration): 92.8 mmHg; Mean blood pressure (common marmoset; 24 hours after administration): 101.9 mmHg
7 | CNC(=O)C(O)[C@H](CC(C)C)NC(=O)[C@H](Cc1c[nH]cn1)NC(=O)C(CC(=O)N1CCOCC1)Cc1cccc2ccccc12 (mixture of isomers) [Example 3, (2RS, 3S)-3-{N-[2-(1-Naphthylmethyl)-3-(morpholinocarbonyl)propionyl]-L-histidyl}amino-2-hydroxy-5-methylhexanoylmethylamide] | – | 340 nM | –
8 | COC(=O)C(O)[C@H](CC(C)C)NC(=O)[C@H](Cc1c[nH]cn1)NC(=O)C(CC(=O)N1CCCC1)Cc1cccc2ccccc12 (stereo partly drawn) [Example 8, Methyl (2RS, 3S)-3-{N-[2-(1-naphthylmethyl)-3-(pyrroiidinocarbonyl)propionyl]-L-histidyl}amino-2-hydroxy-5-methylhexanoate] | 62 nM | 69 nM | –
